From ChEMBL document CHEMBL4507268 (2021)

Assays:
[1] = target: Myotonin-protein kinase (Homo sapiens) (UniProt Q09013); settings: Compound concentration 1000.0 nM
[2] = target: Dual specificity protein kinase CLK3 (Homo sapiens) (UniProt P49761); settings: Compound concentration 1000.0 nM
[3] = target: D(3) dopamine receptor (Homo sapiens) (UniProt P35462); settings: Compound concentration 10.0 uM
[4] = target: Eukaryotic translation initiation factor 2-alpha kinase 1 (Homo sapiens) (UniProt Q9BQI3); settings: Compound concentration 1000.0 nM
[5] = target: Tyrosine-protein kinase HCK (Homo sapiens) (UniProt P08631); settings: Compound concentration 1000.0 nM
[6] = tested on: Phosphatidylinositol 4,5-bisphosphate 3-kinase catalytic subunit alpha isoform (Homo sapiens), P42336 [Q546K]; settings: Compound concentration 1000.0 nM
[7] = target: T1, Dual specificity protein kinase TTK (Homo sapiens) (UniProt P33981); settings: Compound concentration 1000.0 nM
T1 sequence (whole entry): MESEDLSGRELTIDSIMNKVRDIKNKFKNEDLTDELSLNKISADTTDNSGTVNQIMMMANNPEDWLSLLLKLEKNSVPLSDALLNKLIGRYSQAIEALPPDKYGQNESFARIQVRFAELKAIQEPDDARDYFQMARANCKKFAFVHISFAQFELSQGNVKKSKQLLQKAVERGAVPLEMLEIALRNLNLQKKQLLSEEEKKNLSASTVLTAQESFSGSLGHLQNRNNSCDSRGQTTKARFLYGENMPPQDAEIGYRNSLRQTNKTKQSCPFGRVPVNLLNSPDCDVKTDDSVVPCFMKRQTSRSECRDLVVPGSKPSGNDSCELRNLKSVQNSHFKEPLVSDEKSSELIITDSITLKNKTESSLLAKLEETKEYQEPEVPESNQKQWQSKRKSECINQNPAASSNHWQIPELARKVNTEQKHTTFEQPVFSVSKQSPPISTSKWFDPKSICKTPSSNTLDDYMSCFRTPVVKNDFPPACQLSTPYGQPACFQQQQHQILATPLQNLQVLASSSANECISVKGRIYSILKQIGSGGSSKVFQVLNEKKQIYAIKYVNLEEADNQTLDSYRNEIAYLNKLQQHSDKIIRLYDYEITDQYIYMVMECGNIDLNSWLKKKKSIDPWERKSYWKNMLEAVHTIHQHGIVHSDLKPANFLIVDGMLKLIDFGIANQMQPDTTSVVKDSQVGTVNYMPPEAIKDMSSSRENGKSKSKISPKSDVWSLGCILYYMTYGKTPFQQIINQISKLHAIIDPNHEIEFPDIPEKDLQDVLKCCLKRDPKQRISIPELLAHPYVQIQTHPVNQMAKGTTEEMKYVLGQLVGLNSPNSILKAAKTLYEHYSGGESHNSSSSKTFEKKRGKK

[8] = tested on: Tyrosine-protein kinase ABL1 (Homo sapiens), P00519 [F317I]; settings: Compound concentration 1000.0 nM
[9] = target: Tyrosine-protein kinase FRK (Homo sapiens) (UniProt P42685); settings: Compound concentration 1000.0 nM
[10] = target: Serine/threonine-protein kinase tousled-like 2 (Homo sapiens) (UniProt Q86UE8); settings: Compound concentration 1000.0 nM
[11] = tested on: Epidermal growth factor receptor (Homo sapiens), P00533 [T790M]; settings: Compound concentration 1000.0 nM
[12] = target: Homeodomain-interacting protein kinase 1 (Homo sapiens) (UniProt Q86Z02); settings: Compound concentration 1000.0 nM
[13] = target: 5'-AMP-activated protein kinase catalytic subunit alpha-2 (Homo sapiens) (UniProt P54646); settings: Compound concentration 1000.0 nM
[14] = target: Serine/threonine-protein kinase 32B (Homo sapiens) (UniProt Q9NY57); settings: Compound concentration 1000.0 nM
[15] = target: Tyrosine-protein kinase receptor UFO (Homo sapiens) (UniProt P30530); settings: Compound concentration 1000.0 nM
[16] = target: Ribosomal protein S6 kinase alpha-6 (Homo sapiens) (UniProt Q9UK32); settings: Compound concentration 1000.0 nM
[17] = tested on: Tyrosine-protein kinase ABL1 (Homo sapiens), P00519 [M351T]; settings: Compound concentration 1000.0 nM
[18] = target: Mitogen-activated protein kinase kinase kinase 9 (Homo sapiens) (UniProt P80192); settings: Compound concentration 1000.0 nM
[19] = target: T2, NUAK family SNF1-like kinase 2 (Homo sapiens) (UniProt Q9H093); settings: Compound concentration 1000.0 nM
T2 sequence (whole entry): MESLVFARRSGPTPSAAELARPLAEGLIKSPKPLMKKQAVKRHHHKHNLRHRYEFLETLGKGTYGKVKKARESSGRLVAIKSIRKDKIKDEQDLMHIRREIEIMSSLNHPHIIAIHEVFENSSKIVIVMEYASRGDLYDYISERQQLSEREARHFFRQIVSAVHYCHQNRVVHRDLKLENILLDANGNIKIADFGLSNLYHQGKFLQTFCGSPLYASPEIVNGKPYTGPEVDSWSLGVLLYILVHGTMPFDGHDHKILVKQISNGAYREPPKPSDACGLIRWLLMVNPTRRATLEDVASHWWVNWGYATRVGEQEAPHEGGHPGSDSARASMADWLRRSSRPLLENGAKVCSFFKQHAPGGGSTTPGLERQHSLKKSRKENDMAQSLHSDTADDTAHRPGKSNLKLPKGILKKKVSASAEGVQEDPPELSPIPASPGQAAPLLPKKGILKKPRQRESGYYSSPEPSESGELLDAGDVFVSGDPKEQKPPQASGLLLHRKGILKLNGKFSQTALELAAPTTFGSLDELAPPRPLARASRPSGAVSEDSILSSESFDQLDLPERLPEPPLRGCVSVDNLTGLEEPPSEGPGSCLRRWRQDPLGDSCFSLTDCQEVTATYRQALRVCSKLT

Eukaryotic translation initiation factor 2-alpha kinase 1 (Homo sapiens), sequence (Q9BQI3 whole entry): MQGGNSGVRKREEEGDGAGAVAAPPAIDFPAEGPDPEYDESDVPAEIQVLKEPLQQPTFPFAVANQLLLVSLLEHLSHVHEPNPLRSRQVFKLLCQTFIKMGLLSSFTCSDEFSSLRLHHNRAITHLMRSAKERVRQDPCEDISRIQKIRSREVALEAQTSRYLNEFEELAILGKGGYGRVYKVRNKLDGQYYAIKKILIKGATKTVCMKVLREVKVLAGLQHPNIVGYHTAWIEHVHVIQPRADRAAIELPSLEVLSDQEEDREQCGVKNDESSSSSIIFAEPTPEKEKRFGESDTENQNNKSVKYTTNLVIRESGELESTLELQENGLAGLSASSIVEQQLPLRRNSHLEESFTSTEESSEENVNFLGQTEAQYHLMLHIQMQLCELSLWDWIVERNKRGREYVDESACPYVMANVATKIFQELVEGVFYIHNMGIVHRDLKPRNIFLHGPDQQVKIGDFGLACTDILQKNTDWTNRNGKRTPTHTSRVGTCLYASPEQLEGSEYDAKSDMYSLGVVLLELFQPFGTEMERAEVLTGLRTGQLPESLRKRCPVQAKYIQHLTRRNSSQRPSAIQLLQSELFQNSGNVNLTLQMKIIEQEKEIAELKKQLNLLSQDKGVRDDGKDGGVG
Ribosomal protein S6 kinase alpha-6 (Homo sapiens), sequence (Q9UK32 whole entry): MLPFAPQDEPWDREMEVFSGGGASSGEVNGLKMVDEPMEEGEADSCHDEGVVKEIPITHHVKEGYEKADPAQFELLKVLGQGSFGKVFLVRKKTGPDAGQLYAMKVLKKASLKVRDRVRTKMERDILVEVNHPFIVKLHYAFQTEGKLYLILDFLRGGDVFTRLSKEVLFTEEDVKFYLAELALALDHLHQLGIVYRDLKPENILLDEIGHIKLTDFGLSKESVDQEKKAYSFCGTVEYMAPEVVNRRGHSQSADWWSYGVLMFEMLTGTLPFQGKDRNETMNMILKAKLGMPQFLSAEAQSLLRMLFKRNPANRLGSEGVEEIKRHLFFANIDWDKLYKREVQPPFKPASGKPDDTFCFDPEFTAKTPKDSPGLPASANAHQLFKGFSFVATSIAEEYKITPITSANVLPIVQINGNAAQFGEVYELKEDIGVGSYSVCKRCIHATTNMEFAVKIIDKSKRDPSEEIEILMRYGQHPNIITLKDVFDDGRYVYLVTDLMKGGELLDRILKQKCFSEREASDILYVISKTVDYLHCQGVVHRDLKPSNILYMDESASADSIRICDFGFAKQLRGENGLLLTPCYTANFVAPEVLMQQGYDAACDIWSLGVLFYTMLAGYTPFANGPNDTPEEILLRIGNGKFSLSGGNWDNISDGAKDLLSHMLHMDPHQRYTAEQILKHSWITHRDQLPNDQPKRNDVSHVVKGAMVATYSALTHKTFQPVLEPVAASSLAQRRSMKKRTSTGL
Mitogen-activated protein kinase kinase kinase 9 (Homo sapiens), sequence (P80192 whole entry, looked up): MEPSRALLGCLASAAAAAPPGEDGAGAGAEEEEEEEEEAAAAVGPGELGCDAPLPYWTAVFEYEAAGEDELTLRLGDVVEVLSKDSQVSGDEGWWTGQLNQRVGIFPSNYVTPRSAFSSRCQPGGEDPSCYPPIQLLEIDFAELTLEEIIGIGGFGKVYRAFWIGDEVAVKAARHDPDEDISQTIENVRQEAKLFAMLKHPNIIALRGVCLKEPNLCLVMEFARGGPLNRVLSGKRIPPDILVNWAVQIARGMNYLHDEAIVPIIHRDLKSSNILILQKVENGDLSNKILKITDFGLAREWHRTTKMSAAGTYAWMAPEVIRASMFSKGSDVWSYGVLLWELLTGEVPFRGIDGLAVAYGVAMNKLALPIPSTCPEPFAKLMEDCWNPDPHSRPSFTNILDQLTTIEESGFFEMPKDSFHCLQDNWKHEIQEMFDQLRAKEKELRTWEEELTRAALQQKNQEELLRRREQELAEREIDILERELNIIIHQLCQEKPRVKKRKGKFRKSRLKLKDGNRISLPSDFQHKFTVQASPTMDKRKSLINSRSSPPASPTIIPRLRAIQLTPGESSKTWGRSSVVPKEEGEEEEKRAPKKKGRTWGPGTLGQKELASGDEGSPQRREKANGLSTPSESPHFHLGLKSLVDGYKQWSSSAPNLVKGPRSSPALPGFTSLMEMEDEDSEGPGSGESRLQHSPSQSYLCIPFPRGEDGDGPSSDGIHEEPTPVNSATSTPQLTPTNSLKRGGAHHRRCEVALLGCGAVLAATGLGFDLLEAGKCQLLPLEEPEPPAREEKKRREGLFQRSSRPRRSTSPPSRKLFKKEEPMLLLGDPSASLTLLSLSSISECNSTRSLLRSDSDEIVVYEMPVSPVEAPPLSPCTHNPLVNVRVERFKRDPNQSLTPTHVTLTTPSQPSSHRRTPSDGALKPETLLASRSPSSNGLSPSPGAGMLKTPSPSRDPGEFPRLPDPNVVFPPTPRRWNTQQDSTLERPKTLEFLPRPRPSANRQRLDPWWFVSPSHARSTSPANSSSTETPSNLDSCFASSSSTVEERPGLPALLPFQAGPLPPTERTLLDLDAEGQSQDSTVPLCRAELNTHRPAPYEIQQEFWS
Tyrosine-protein kinase receptor UFO (Homo sapiens), sequence (P30530 whole entry): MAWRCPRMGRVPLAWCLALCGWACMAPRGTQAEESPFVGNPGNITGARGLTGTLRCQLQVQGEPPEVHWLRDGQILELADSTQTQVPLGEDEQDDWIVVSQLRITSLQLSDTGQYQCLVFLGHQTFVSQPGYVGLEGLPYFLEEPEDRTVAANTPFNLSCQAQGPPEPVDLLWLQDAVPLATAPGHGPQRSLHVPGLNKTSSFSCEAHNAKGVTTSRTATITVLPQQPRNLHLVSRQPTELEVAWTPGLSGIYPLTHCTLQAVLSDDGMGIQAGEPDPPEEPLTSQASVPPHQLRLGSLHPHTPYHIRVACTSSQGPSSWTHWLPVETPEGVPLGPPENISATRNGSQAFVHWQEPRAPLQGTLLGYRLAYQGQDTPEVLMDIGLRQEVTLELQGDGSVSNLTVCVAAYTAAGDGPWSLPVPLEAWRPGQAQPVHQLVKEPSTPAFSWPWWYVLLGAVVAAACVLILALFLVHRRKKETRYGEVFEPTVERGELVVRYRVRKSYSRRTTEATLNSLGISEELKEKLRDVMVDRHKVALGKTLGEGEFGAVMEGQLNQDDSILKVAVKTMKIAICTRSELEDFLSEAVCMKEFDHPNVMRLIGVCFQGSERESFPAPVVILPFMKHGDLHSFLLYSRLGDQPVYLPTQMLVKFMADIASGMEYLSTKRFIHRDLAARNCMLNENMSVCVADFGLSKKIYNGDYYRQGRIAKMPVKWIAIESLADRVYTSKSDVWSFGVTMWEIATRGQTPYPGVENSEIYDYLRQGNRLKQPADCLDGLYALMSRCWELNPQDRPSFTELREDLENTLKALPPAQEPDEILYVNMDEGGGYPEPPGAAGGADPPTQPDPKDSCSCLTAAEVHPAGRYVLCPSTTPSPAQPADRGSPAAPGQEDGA
Dual specificity protein kinase CLK3 (Homo sapiens), sequence (P49761 whole entry, looked up): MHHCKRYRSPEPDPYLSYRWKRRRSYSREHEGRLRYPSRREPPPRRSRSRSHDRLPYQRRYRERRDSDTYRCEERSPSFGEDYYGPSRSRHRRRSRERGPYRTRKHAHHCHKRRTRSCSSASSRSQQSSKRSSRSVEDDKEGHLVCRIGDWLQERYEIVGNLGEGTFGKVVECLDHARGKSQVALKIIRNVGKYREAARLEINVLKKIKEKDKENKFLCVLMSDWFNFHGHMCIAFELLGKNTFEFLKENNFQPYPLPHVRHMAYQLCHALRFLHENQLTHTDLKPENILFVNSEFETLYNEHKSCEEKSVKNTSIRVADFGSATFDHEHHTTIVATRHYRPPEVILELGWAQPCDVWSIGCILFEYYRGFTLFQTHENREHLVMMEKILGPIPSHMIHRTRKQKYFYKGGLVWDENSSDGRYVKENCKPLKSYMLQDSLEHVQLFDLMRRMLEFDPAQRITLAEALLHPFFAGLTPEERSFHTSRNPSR
D(3) dopamine receptor (Homo sapiens), sequence (P35462 whole entry): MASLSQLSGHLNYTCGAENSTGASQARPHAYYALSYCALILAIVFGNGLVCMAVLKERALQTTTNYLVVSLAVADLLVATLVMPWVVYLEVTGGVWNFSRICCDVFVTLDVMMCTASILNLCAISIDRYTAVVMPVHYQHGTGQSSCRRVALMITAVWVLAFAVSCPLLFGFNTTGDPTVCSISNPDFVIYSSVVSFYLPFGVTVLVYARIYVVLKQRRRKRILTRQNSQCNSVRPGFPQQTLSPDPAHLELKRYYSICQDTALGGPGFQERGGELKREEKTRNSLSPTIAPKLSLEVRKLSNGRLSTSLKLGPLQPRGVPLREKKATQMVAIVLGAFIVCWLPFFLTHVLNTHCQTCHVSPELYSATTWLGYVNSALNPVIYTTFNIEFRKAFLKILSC
Myotonin-protein kinase (Homo sapiens), sequence (Q09013 whole entry): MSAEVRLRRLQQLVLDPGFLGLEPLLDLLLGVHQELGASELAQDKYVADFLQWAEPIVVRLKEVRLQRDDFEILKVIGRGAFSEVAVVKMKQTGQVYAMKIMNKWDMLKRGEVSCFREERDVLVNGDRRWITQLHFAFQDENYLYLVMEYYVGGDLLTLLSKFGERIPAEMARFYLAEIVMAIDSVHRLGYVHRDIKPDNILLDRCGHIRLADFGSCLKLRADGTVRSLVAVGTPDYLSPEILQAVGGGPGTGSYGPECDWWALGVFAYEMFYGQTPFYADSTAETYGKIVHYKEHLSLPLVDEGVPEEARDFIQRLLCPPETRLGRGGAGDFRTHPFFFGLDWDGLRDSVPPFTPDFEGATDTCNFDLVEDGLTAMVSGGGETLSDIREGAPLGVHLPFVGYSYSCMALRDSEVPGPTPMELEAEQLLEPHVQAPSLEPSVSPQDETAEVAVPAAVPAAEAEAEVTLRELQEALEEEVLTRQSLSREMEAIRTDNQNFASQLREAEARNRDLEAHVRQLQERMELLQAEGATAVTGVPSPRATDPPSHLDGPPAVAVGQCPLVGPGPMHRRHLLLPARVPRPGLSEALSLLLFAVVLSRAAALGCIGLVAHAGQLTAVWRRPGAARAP

Cc1nc(C2CCN(C(=O)c3ccc(OC(F)(F)F)cc3N)CC2)c2ncc(N3CCN(C)CC3)cc2n1 [BAY-693]
inactive: residual activity [1] 100% | residual activity [2] 94% | inhibition [3] -8.88% | residual activity [4] 85% | residual activity [5] 95% | residual activity [6] 88% | residual activity [7] 100% | residual activity [8] 76% | residual activity [9] 95% | residual activity [10] 100% | residual activity [11] 100% | residual activity [12] 100% | residual activity [13] 100% | residual activity [14] 90% | residual activity [15] 100% | residual activity [16] 100% | residual activity [17] 100% | residual activity [18] 97% | residual activity [19] 81%

CN1CCN(c2cnc3c(C4CCN(C(=O)c5ccc(OC(F)(F)F)cc5N)CC4)ncnc3c2)CC1 [BAY-885]
inactive: residual activity [1] 89% | residual activity [2] 100% | inhibition [3] 7.59% | residual activity [4] 100% | residual activity [5] 95% | residual activity [6] 100% | residual activity [7] 100% | residual activity [8] 99% | residual activity [9] 100% | residual activity [10] 89% | residual activity [11] 84% | residual activity [12] 99% | residual activity [13] 100% | residual activity [14] 87% | residual activity [15] 78% | residual activity [16] 100% | residual activity [17] 100% | residual activity [18] 100% | residual activity [19] 90%
